Test results reported in BindingDB's records for doi:10.1021/ml400144e (Riken, 2013).

Target: T1, NF-kappa-B inhibitor alpha (Homo sapiens, UniProt P25963)
T1 sequence (P25963 whole entry): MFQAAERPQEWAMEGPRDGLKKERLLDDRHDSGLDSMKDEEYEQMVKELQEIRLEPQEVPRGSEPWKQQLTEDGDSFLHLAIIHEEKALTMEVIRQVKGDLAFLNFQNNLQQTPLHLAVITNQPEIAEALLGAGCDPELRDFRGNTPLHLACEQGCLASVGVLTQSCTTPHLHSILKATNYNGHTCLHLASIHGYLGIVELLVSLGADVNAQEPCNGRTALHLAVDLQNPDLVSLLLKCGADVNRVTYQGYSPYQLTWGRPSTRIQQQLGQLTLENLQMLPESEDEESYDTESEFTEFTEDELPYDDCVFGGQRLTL
Assay: Inhibition of TNFalpha-induced IkappaBalpha (unknown origin) phosphorylation expressed in human HeLa cells pretreated 30 mins before TNFalpha addition measured up to 120 mins by ELISA in presence of proteasome inhibitor MG-132

Row | Compound | IC50 [µM]
1 | C[C@H]1C(=O)OC[C@H]1C[C@@H](O)[C@](C)(O)[C@@]1(O)CC[C@@]2(O)[C@@H]3CC=C4CC=CC(=O)[C@]4(C)[C@H]3CC[C@]12C | > 50
2 | C[C@H]1C(=O)OC[C@H]1C[C@@H](O)[C@](C)(O)[C@]1(O)CC[C@@]2(O)[C@@H]3CC=C4CC=CC(=O)[C@]4(C)[C@H]3CC[C@]12C | > 50
3 | CC1=C(C)C(=O)O[C@@H]([C@](C)(O)C2=CC[C@@]3(O)[C@@H]4CC=C5CC=CC(=O)[C@]5(C)[C@H]4CC[C@]23C)C1 | > 50
4 | CC1=C(C)C(=O)O[C@@H]([C@](C)(O)[C@H]2CC[C@@]3(O)[C@@H]4CC=C5CC=CC(=O)[C@]5(C)[C@H]4CC[C@]23C)C1 | > 50
5 | C[C@]12C(=O)C=CCC1=CC[C@@H]1[C@@H]2CC[C@]2(O)C(=O)O[C@@]3(C)[C@H]4C[C@@](C)([C@@H]5C(=O)[C@]1(O)O[C@@]532)[C@](C)(O)C(=O)O4 | > 50
6 | C[C@]12C(=O)C=CCC1=C[C@@H](O)[C@@H]1[C@@H]2CC[C@@]2(O)C(=O)O[C@@]3(C)[C@H]4C[C@]5(C)[C@@H](CO[C@@]16O[C@]23[C@H]5C6=O)C(=O)O4 | > 50
7 | C=C1C(=O)O[C@@H]2C[C@@]1(C)[C@@H]1C(=O)[C@]3(O)O[C@]14[C@@]2(C)OC(=O)[C@@]4(O)CC[C@H]1[C@H]3CC=C2CC=CC(=O)[C@@]21C | 26.2
8 | C[C@@]12C[C@H]3OC(=O)[C@]1(O)CO[C@]14O[C@@]5([C@H]2C1=O)[C@@]3(C)OC(=O)[C@@]5(O)CC[C@H]1[C@H]4C[C@H]2O[C@]23CC=CC(=O)[C@]13C [25-HYDROXY PHYSALIN F] | 30.1
9 | C[C@@]12C[C@H]3OC(=O)[C@]1(O)CO[C@]14O[C@@]5([C@H]2C1=O)[C@@]3(C)OC(=O)[C@@]5(O)CC[C@H]1[C@H]4C[C@@H]2O[C@@]23CC=CC(=O)[C@]13C [25-HYDROXY PHYSALIN J] | > 50
10 | C[C@]12C(=O)C=CCC1=CC[C@@H]1[C@@H]2CC[C@]2(O)C(=O)O[C@@]3(C)[C@H]4C[C@]5(C)[C@@H](CO[C@@]16O[C@@]32[C@H]5C6=O)C(=O)O4 [NSC-287088] | 37.5
11 | C=C1C(=O)O[C@@H]2C[C@@]1(C)[C@@H]1C(=O)[C@]3(O)O[C@]14[C@@]2(C)OC(=O)[C@@]4(O)CC[C@H]1[C@H]3[C@H](O)C=C2CC=CC(=O)[C@@]21C [PHYSALIN A] | > 50
12 | C[C@@]12C[C@H]3OC(=O)[C@@H]1CO[C@]14O[C@]5([C@H]2C1=O)[C@@](O)(CC[C@H]1[C@H]4C[C@H]2O[C@]24CC=CC(=O)[C@]14C)C(=O)O[C@@]35C [PHYSALIN F] | 27.1
13 | C[C@@]12C[C@H]3OC(=O)[C@@H]1CO[C@@]14O[C@]5(C2C1=O)[C@@](O)(CC[C@H]1[C@H]4C[C@@H]2O[C@@]24CC=CC(=O)[C@]14C)C(=O)O[C@@]35C [PHYSALIN J] | > 50
14 | C[C@@H]1C(=O)O[C@@H]2C[C@@]1(C)[C@@H]1C(=O)[C@]3(O)O[C@]14[C@@]2(C)OC(=O)[C@@]4(O)CC[C@H]1[C@H]3[C@H](O)C=C2CC=CC(=O)[C@@]21C [PHYSALIN O] | > 50
15 | CC1=C(C)C(=O)O[C@@H]([C@](C)(O)[C@]2(O)CC[C@@]3(O)[C@@H]4C[C@H]5O[C@]56CC=CC(=O)[C@]6(C)[C@H]4CC[C@]23C)C1 [WITHANOLIDE E] | 18
16 | CC1=C(C)C(=O)O[C@@H]([C@](C)(O)[C@]2(O)CC[C@@]3(O)[C@@H]4CC=C5CC=CC(=O)[C@]5(C)[C@H]4CC[C@]23C)C1 [WITHANOLIDE F] | > 50
